The supplement of paper PMC10307832

Legend:
Test in all cases: relative viability (nuclei count vs DMSO), 5 days (fraction); higher = more cells survive
[1] = compound: Cn1cncc1[C@@](N)(c1ccc(Cl)cc1)c1ccc2c(c1)c(-c1cccc(Cl)c1)cc(=O)n2C [Tipifarnib] + Cc1cc(Nc2cc(N3CCN(C)CC3)nc(Sc3ccc(NC(=O)C4CC4)cc3)n2)n[nH]1 [Tozasertib] (partner 0.1 µM)
Summary of the method: (§1)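 Each reported value is a median over duplicate plates. It expresses relative viability: treated-well nuclei count divided by vehicle-well nuclei count. Lung cancer cell lines in 1536-well plates were dosed by pin tool a day after seeding, alone with one drug or with a fixed anchor-drug dose plus five library-drug doses (not always all listed) in √10 steps, and nuclei were counted after 5 days.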

[2] = compound: Cn1cncc1[C@@](N)(c1ccc(Cl)cc1)c1ccc2c(c1)c(-c1cccc(Cl)c1)cc(=O)n2C [Tipifarnib] + Cc1nc(Nc2ncc(C(=O)Nc3c(C)cccc3Cl)s2)cc(N2CCN(CCO)CC2)n1 [Dasatinib] (partner 0.075 µM)
Summary of the method: as §1

[3] = compound: Cn1cncc1[C@@](N)(c1ccc(Cl)cc1)c1ccc2c(c1)c(-c1cccc(Cl)c1)cc(=O)n2C [Tipifarnib] + CCNC(=O)c1noc(-c2cc(C(C)C)c(O)cc2O)c1-c1ccc(CN2CCOCC2)cc1 [Luminespib] (partner 0.01 µM)
Summary of the method: as §1

[4] = compound: Cn1cncc1[C@@](N)(c1ccc(Cl)cc1)c1ccc2c(c1)c(-c1cccc(Cl)c1)cc(=O)n2C [Tipifarnib] + Cc1nc(NC(=O)N2CCC[C@H]2C(N)=O)sc1-c1ccnc(C(C)(C)C(F)(F)F)c1 [Alpelisib] (partner 2 µM)
Summary of the method: as §1

Cell Line	relative viability ([1]; first compound 0.01 µM)	relative viability ([1]; first compound 0.03162 µM)	relative viability ([1]; first compound 0.1 µM)	relative viability ([1]; first compound 0.3162 µM)	relative viability ([1]; first compound 1 µM)	relative viability ([2]; first compound 0.01 µM)	relative viability ([2]; first compound 0.03162 µM)	relative viability ([2]; first compound 0.1 µM)	relative viability ([2]; first compound 0.3162 µM)	relative viability ([2]; first compound 1 µM)	relative viability ([3]; first compound 0.01 µM)	relative viability ([3]; first compound 0.03162 µM)	relative viability ([3]; first compound 0.1 µM)	relative viability ([3]; first compound 0.3162 µM)	relative viability ([3]; first compound 1 µM)	relative viability ([4]; first compound 0.01 µM)	relative viability ([4]; first compound 0.03162 µM)	relative viability ([4]; first compound 0.1 µM)	relative viability ([4]; first compound 0.3162 µM)	relative viability ([4]; first compound 1 µM)
NCI-H322M	0.55	0.492	0.511	0.417	0.46	0.236	0.27	0.259	0.246	0.285	0.854	0.85	0.676	0.665	0.554	0.765	0.816	0.767	0.741	0.658
NCI-H358	0.117	0.123	0.104	0.104	0.11	0.142	0.224	0.157	0.169	0.155	0.246	0.297	0.212	0.212	0.214	0.918	0.748	0.8	0.504	0.431
NCI-H441	0.671	0.554	0.528	0.356	0.439	0.592	0.516	0.484	0.396	0.277	0.39	0.355	0.242	0.315	0.267	0.712	1.06	0.54	0.307	0.379
NCI-H460	0.625	0.51	0.216	0.15	0.0888	0.512	0.514	0.307	0.146	0.0594	0.0293	0.0319	0.0244	0.0236	0.0186	0.572	0.527	0.198	0.115	0.0453
NCI-H520	0.404	0.4	0.348	0.335	0.336	0.163	0.185	0.183	0.163	0.142	0.235	0.233	0.207	0.207	0.23	1.11	0.823	0.845	0.458	0.471
NCI-H596	1.05	0.687	0.713	0.722	0.589	0.612	0.653	0.527	0.423	0.384	1.08	0.796	0.849	0.828	0.63	0.516	0.547	0.0161	0.436	0.356
NCI-H647	0.21	0.126	0.178	0.101	0.14	0.205	0.159	0.167	0.127	0.0682	0.239	0.155	0.102	0.0914	0.0951	1.05	0.822	0.838	0.44	0.488
NCI-H650	0.791	0.612	0.498	0.576	0.379	0.421	0.375	0.366	0.284	0.266	0.888	0.697	0.61	0.57	0.442	1.07	0.988	0.827	0.661	0.6
NCI-H661	0.355	0.347	0.337	0.34	0.347	1.11	0.949	0.914	0.601	0.619	0.898	0.844	0.847	0.713	0.669	0.648	0.901	0.399	0.598	0.446
NCI-H727	0.809	0.598	0.624	0.608	0.444	0.443	0.422	0.421	0.503	0.62	0.341	0.401	0.533	0.462	0.432	0.683	0.516	0.569	0.496	0.513
NCI-H838	0.254	0.286	0.248	0.214	0.252	0.322	0.296	0.233	0.263	0.237	0.41	0.266	0.212	0.21	0.211	1.02	0.777	0.712	0.553	0.659
NCI-H1355	0.474	0.408	0.321	0.349	0.329	0.684	0.687	0.524	0.496	0.443	0.76	0.61	0.525	0.532	0.433	0.874	0.804	0.678	0.518	0.599
NCI-H1395	0.659	0.681	0.567	0.498	0.556	0.421	0.348	0.342	0.34	0.381	0.776	0.72	0.711	0.446	0.452	0.92	1.03	0.894	0.693	0.6
NCI-H1437	0.398	0.358	0.381	0.319	0.353	0.446	0.482	0.452	0.416	0.214	1.25	1.17	1.15	0.913	1.07	1.02	1.02	0.931	0.76	0.688
NCI-H1651	0.927	0.649	0.615	0.575	0.711	0.474	0.209	0.389	0.363	0.196	0.921	0.934	0.797	0.684	0.753	1.32	1.01	1.03	0.837	0.811
NCI-H1666	0.593	0.507	0.526	0.447	0.517	0.791	0.779	0.785	0.748	0.605	1	0.92	0.94	0.842	0.806	1	0.725	0.851	0.717	0.538

Cell Line	relative viability ([1]; first compound 0.01 µM)	relative viability ([1]; first compound 0.03162 µM)	relative viability ([1]; first compound 0.1 µM)	relative viability ([1]; first compound 0.3162 µM)	relative viability ([1]; first compound 1 µM)	relative viability ([2]; first compound 0.01 µM)	relative viability ([2]; first compound 0.03162 µM)	relative viability ([2]; first compound 0.1 µM)	relative viability ([2]; first compound 0.3162 µM)	relative viability ([2]; first compound 1 µM)	relative viability ([3]; first compound 0.01 µM)	relative viability ([3]; first compound 0.03162 µM)	relative viability ([3]; first compound 0.1 µM)	relative viability ([3]; first compound 0.3162 µM)	relative viability ([3]; first compound 1 µM)	relative viability ([4]; first compound 0.01 µM)	relative viability ([4]; first compound 0.03162 µM)	relative viability ([4]; first compound 0.1 µM)	relative viability ([4]; first compound 0.3162 µM)	relative viability ([4]; first compound 1 µM)
NCI-H1734	0.294	0.26	0.247	0.215	0.239	0.465	0.389	0.347	0.274	0.22	0.198	0.147	0.171	0.168	0.164	0.714	0.598	0.592	0.501	0.418
NCI-H1755	0.741	0.584	0.639	0.518	0.569	0.477	0.39	0.365	0.348	0.271	0.516	0.475	0.516	0.545	0.201	0.916	0.848	0.868	0.804	0.808
NCI-H1793	0.286	0.284	0.248	0.247	0.265	0.455	0.43	0.34	0.246	0.243	0.23	0.173	0.196	0.134	0.138	0.811	0.691	0.565	0.453	0.396
NCI-H1915	0.358	0.326	0.293	0.26	0.287	0.241	0.182	0.201	0.175	0.16	0.681	0.638	0.48	0.44	0.428	0.817	0.624	0.544	0.48	0.457
NCI-H1944	0.257	0.256	0.236	0.25	0.236	0.213	0.173	0.161	0.17	0.169	0.641	0.657	0.363	0.372	0.393	0.805	0.742	0.648	0.54	0.572
NCI-H1975	0.853	0.695	0.682	0.386	0.374	0.383	0.356	0.412	0.238	0.185	0.235	0.282	0.163	0.172	0.106	0.713	0.599	0.468	0.329	0.351
NCI-H1993	0.444	0.481	0.553	0.521	0.481	0.596	0.515	0.495	0.527	0.516	0.697	0.644	0.57	0.504	0.481	0.71	0.679	0.675	0.677	0.671
NCI-H2009	0.605	0.574	0.421	0.341	0.419	0.31	0.232	0.217	0.211	0.21	0.955	0.827	0.786	0.528	0.599	1.18	1.06	0.899	0.689	0.679
NCI-H2023	0.251	0.289	0.217	0.182	0.215	0.561	0.427	0.325	0.299	0.217	0.749	0.486	0.386	0.337	0.286	0.595	0.442	0.391	0.326	0.334
NCI-H2085	0.723	0.663	0.468	0.437	0.617	0.296	0.264	0.262	0.25	0.288	0.406	0.317	0.34	0.295	0.34	0.924	0.709	0.605	0.599	0.533
NCI-H2087	0.245	0.164	0.164	0.132	0.132	0.764	0.405	0.289	0.264	0.21	0.185	0.154	0.165	0.141	0.152	1.17	0.635	0.3	0.371	0.406
NCI-H2126	0.858	0.697	0.673	0.603	0.501	0.652	0.673	0.648	0.578	0.391	0.982	0.947	0.7	0.876	0.723	0.759	0.729	0.799	0.733	0.706
NCI-H2170	0.839	0.718	0.456	0.501	0.47	0.688	0.805	0.601	0.636	0.462	0.406	0.555	0.619	0.282	0.691	0.839	0.818	0.74	0.671	0.699
NCI-H2228	0.24	0.164	0.223	0.174	0.235	0.531	0.52	0.456	0.266	0.184	0.126	0.126	0.165	0.145	0.157	0.997	0.475	0.473	0.537	0.371
NCI-H2347	0.516	0.402	0.431	0.382	0.461	0.278	0.293	0.256	0.303	0.277	0.671	0.298	0.401	0.386	0.28	1.05	0.798	0.714	0.689	0.674
NCI-H2405	0.708	0.666	0.626	0.544	0.532	0.188	0.208	0.219	0.228	0.217	0.71	0.584	0.525	0.606	0.527	0.863	0.832	0.7	0.718	0.72
